In brackets after ≈: the same amount, converted by molar mass. Where two headings read alike, the source gives them in different places.
Tests used:
M. buccale CH-20249 = test: Antimycoplasma activity (twofold agar dilution method); format: cell-based; conditions: 48 h, read-out: minimum inhibitory concentration (MIC)
Procedure: (§1) The figures in the table show minimum inhibitory concentrations (MIC), (μg/ml), calculated for free base.
(§2) Minimum inhibitory concentrations (MIC) were determined by the twofold agar dilution method. The media used were Chanock broth and agar PPLD broth and agar (Difco) supplemented with 20% horse serum and 10% fresh yeast extract). A 2-3 day broth culture of organisms was diluted with Chanock broth to a cell density of about 10^6 cells/ml. One loopful (about […]) of the organism dilution was spotted onto 10-ml drug containing Chanock agar in petri dishes using a multiple inoculator (Cathra International). The petri dishes were incubated at 37° C. for 7 and 2 days for Mycoplasma pneumoniae and other Mycoplasma spp. respectively. Incubation was performed anaerobically using the Gaspak anaerobic system (BBL) for M. buccale, M. fermentans, M. hominis, M. orale and M. salivarium, and aerobically for other Mycoplasma spp. The MIC was defined as the lowest compound concentration at which no growth of organism was detected.

M. hominis PG-21 = test: as above; format: cell-based; conditions: Metamycoplasma hominis, PG21, 48 h; M. hominis PG-21; Chanock agar, 37° C., 2 days, anaerobic, calculated for free base; read-out: minimum inhibitory concentration (MIC)
Procedure: as §1, §2

M. fermentans PG-18 = test: as above; format: cell-based; conditions: Mycoplasmopsis fermentans, PG18, 48 h; M. fermentans PG-18; Chanock agar, 37° C., 2 days, anaerobic, calculated for free base; read-out: minimum inhibitory concentration (MIC)
Procedure: as §1, §2

M. hyorhinis BST-7 = test: as above; format: cell-based; conditions: Mesomycoplasma hyorhinis, BST7, 48 h, read-out: minimum inhibitory concentration (MIC)
Procedure: as §1, §2

A. laidlawii PG-8 = test: as above; format: cell-based; conditions: Acholeplasma laidlawii, PG8, 48 h, read-out: minimum inhibitory concentration (MIC)
Procedure: as §1, §2

M. arginini G-230 = test: as above; format: cell-based; conditions: 48 h, read-out: minimum inhibitory concentration (MIC)
Procedure: as §1, §2

M. orale CH-19299 = test: as above; format: cell-based; conditions: 48 h, read-out: minimum inhibitory concentration (MIC)
Procedure: as §1, §2

[1] = system: Staphylococcus aureus 50774; format: in vivo, Staphylococcus aureus (male mice, Std-ddY); conditions: Staphylococcus aureus, 50774, 336 h; mice, oral, twice (immediately and 6 h after intravenous infection), 14 days, calculated for free base; read-out: median effective dose (ED50)
From the text: Staphylococcus aureus 50774
Intravenous infection with 5×10^8 cells per mouse suspended in saline.
For 7 days for other organisms.

[2] = system: Streptococcus pyogenes A65; conditions: A65, in Mus musculus, po, 168 h, read-out: median effective dose (ED50)
[3] = system: Pseudomonas aeruginosa 12; conditions: Pseudomonas aeruginosa, 12, in Mus musculus, po, 168 h, read-out: median effective dose (ED50)
[4] = system: Streptococcus pneumoniae 1 Neufeld; format: in vivo, Streptococcus pneumoniae (male mice, Std-ddY); conditions: 336 h, mice, oral, four times (immediately, 6, 24 and 30 h after intraperitoneal infection), 14 days, calculated for free base, read-out: median effective dose (ED50)
[5] = Urinary excretion in mice (thin-layer cup-plated method, Escherichia coli Kp indicator); format: in vivo; conditions: mouse, urine, oral, 5 mg/kg, read-out: Urinary recovery for 24 hours
Procedure: A suspension containing each of compounds was orally administered to mice at a dose of 5 mg/kg. Urine was collected over a period of 24 hours after adminstration. The levels of the compounds in urine were determined by the thin-layer cup-plated method using Escherichia coli Kp as an indicator organism.

Structure (SMILES) | MIC (M. buccale CH-20249; M. buccale CH-20249, Chanock agar, 37° C., 2 days, anaerobic, calculated for free base) [µg/mL] | MIC (M. hominis PG-21) [µg/mL] | MIC (M. fermentans PG-18) [µg/mL] | MIC (M. hyorhinis BST-7; M. hyorhinis BST-7, Chanock agar, 37° C., 2 days, aerobic, calculated for free base) [µg/mL] | MIC (A. laidlawii PG-8; A. laidlawii PG-8, Chanock agar, 37° C., 2 days, aerobic, calculated for free base) [µg/mL] | MIC (M. arginini G-230; M. arginini G-230, Chanock agar, 37° C., 2 days, aerobic, calculated for free base) [µg/mL] | MIC (M. orale CH-19299; M. orale CH-19299, Chanock agar, 37° C., 2 days, anaerobic, calculated for free base) [µg/mL] | MIC (M. buccale CH-20249) [µg/mL] | MIC (M. hyorhinis BST-7) [µg/mL] | MIC (A. laidlawii PG-8) [µg/mL] | MIC (M. arginini G-230) [µg/mL] | MIC (M. orale CH-19299) [µg/mL] | ED50 [1] [mg/kg] | ED50 [2] [mg/kg] | ED50 [3] [mg/kg] | ED50 [4] [mg/kg] | dose excreted at 24 h [5] [%]
Nc1c(F)c(N2CCNCC2)cc2c1c(=O)c(C(=O)O)cn2C1CC1 [Compound 1] | 0.1 (≈ 0.289 µM) | 0.39 (≈ 1.13 µM) | 0.1 (≈ 0.289 µM) | 0.1 (≈ 0.289 µM) | 0.1 (≈ 0.289 µM) | 0.1 (≈ 0.289 µM) | 0.39 (≈ 1.13 µM) | – | – | – | – | – | – | – | – | – | –
C[C@@H]1CN(c2cc3c(c(N)c2F)c(=O)c(C(=O)O)cn3C2CC2)C[C@H](C)N1 [Compound 2, 5-amino-1-cyclopropyl-6-fluoro-7-(cis-3,5-dimethyl-1-piperazinyl)-1,4-dihydro-4-oxoquinoline-3-carboxylic acid] | – | 0.1 (≈ 0.267 µM) | 0.025 (≈ 0.0668 µM) | – | – | – | – | 0.05 (≈ 0.134 µM) | 0.05 (≈ 0.134 µM) | 0.05 (≈ 0.134 µM) | 0.05 (≈ 0.134 µM) | 0.39 (≈ 1.04 µM) | 1.41 | 11.6 | 1.98 | 10.2 | 8.33
